Consider 14 compounds from PubChem BioAssay (NCI).

Common to all, as to test: inhibition of tumour cell growth, NCI panel, 48 h
Test [1] relates to T-47D breast.
Test [2] has as its system A498 renal.
The test system of test [3] is M14 melanoma.
The test system of test [4] is SK-MEL-5 melanoma.
For test [5], the system named is DU-145 prostate.
Test [6] has as its system OVCAR-3 ovarian.
In test [7] the test system is HCT-116 colon.
The subject of test [8] is CCRF-CEM leukemia.
Test [9] relates to SN12C renal.

SMILES strings stand for the structures.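 Values below derive from 48-hour exposures of cells grown in 96-well plates, with endpoints linearly interpolated between the two concentrations bracketing the appropriate inhibition level. GI50 = concentration required for 50% inhibition of growth. TGI: concentration producing complete growth inhibition.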 Where a SMILES comes first, the peptide text is derived from it. [ ]: non-standard residue; d: D form. The star is where a group is joined. X28 = COC1=CC(=O)N(C(=O)[C@@H](O*)C(C)C)[C@H]1Cc1ccccc1; NMeV = CN[C@H](C(=O)O)C(C)C; Hexanoyl = CCCCCC(=O)*

For `CCOC(=O)N(Cc1cccs1)c1cc(OC)c(OC)c(OC)c1`, the TGI in [1], in test [2], in test [3], in test [4], in test [5] and in test [6] was above 100 µM throughout. The values for the TGI in test [7], in test [8] and in [9] were above 100 µM, 69.3 µM and above 100 µM, respectively.
Consider `CCCNC(=O)c1cc(NC(=O)c2cc(NC(=O)/C=C/c3ccccc3)c(OC)c(OC)c2)c(OC)c(OC)c1`, for which the TGI in test [2] was 30.8 µM; in test [3], above 100 µM; in test [5], above 100 µM; in test [6] it was 17.9 µM; in [7], above 100 µM; in [8], above 100 µM. Besides, in test [9], the TGI was 0.879 µM.
In the case of `CCN(CC)CC(C)Nc1ccc([N+](=O)[O-])c2sc3ccccc3c(=O)c12` (stereo unspecified), the GI50 is 2.05 µM in test [1]; 1.49 µM in test [2]; 1.68 µM in test [3]; 1.08 µM in test [4]; 1.49 µM in test [5]; 2.88 µM in test [6]. Besides, the GI50 in [7] was 1.41 µM; in test [8] it was 2.44 µM; in test [9], 1.93 µM. The TGI in [1] amounted to 13.2 µM; in test [2], 10.5 µM; in test [3], 4.03 µM; in test [4] it was 2.26 µM; in test [5] it was 9.79 µM; in [6] it was 11.5 µM. The TGI came out at 4.49 µM in [7], 10.5 µM in test [8] and 23.5 µM in test [9].
Turning to `N=c1c2c(C(N)=O)cn(C3OC(CO)C(O)C3O)c2ncn1O` (stereo unspecified), the TGI in [1] amounted to 3.69 µM; in test [3] it was 0.506 µM; in test [4], 0.174 µM; in test [5], 1.36 µM; in test [6] it was 0.943 µM; in test [7], 0.596 µM. Besides, the TGI in [8] stood at 1.46 µM; in test [9], 0.444 µM.
On to `CCOC(=O)CSc1nc(N)c2c(-c3ccc(OC)c(OC)c3)c3c(nc2n1)CCCC3`, for which the TGI in [1], in test [3], in test [4], in test [5], in [6] and in test [7] was above 100 µM in each case. Besides, the TGI in test [8] and in [9] was above 100 µM throughout.
On to `CCOC(=O)C1(C(=O)OCC)Nc2cccnc2N(C)N1`, for which the TGI is 53.5 µM in test [1]; 52.4 µM in [2]; 39.1 µM in test [3]; 34.2 µM in test [4]; 42.5 µM in test [5]; 41.5 µM in test [6]. The figures for the TGI in test [7], in test [8] and in test [9] were 73.9 µM, 44.6 µM and 36 µM, respectively.
Consider `CN1CC[C@@]2(c3cccc(O)c3)CC(=O)/C(=C/c3ccccc3)[C@H]1C2`, for which the TGI is 30.4 µM in test [2]; 30.4 µM in [3]; above 54.8 µM in test [4]; 29.3 µM in test [5]; 12.5 µM in [7]; above 27.7 µM in test [8]. For the same compound, the TGI in test [9] worked out at 19.4 µM.
As to `N=C(N)c1ccc(-c2ccc(-c3cc(Cl)cc(Cl)c3)o2)nc1`, the GI50 in test [2] was 1.47 µM; in test [3], 1.9 µM; in test [4], 1.77 µM; in test [5] it was 1.87 µM; in test [6] it was 1.88 µM; in test [9] it was 1.62 µM. The TGI in test [2] worked out at 3.22 µM; in test [3], 3.63 µM; in [4], 3.25 µM; in test [5], 3.37 µM; in test [6], 3.39 µM; in test [9], 3.16 µM.
As for `CCC1C(C#N)=C(N)OC2=C1C(=O)CC(C)(C)C2` (stereo unspecified), the TGI in test [2], in test [3], in test [4], in [5], in [6] and in [7] was above 100 µM in each case. The TGI in test [8] and in test [9] was above 100 µM in each case.
For `O=S(=O)(O)c1ccc2cccc(N=Nc3c(O)ccc4ccccc34)c2c1`, the TGI in test [1], in [2], in [3], in [4], in test [5] and in test [6] was above 100 µM throughout. Also, the TGI in test [7], in test [8] and in [9] was above 100 µM each time.
`COc1cc(/C=C/C(=O)c2ccc(NS(=O)(=O)c3cc([N+](=O)[O-])ccc3C)cc2)cc(OC)c1OC`: the TGI in test [1] came to 38.6 µM; in [3], 15.3 µM; in test [4] it was 15.4 µM; in test [5], 10.2 µM; in [6] it was 11.5 µM; in test [7], 6.49 µM. In addition, the TGI in test [8] worked out at 7.48 µM; in test [9], 4.52 µM.
As to `CCCCCC(=O)N[C@H](C(=O)N[C@H](C(=O)N(C)[C@H](C(=O)N1CCC[C@H]1C(=O)N1CCC[C@H]1C(=O)O[C@H](C(=O)N1C(=O)C=C(OC)[C@@H]1Cc1ccccc1)C(C)C)C(C)C)C(C)C)C(C)C` (Hexanoyl-VV[NMeV]PP-X28), the TGI in test [1], in test [2], in test [5], in test [6], in [7] and in test [8] was above 100 µM each time. Also, the TGI in [9] was above 100 µM.
`COc1cccc(N=Cc2cc3cc(Br)ccc3nc2Cl)c1`: the TGI in test [1], in test [3], in test [4], in test [5], in test [6] and in test [7] was above 50 µM in each case. Further, the TGI was 48.8 µM in test [8] and above 50 µM in test [9].
For `CC#CC#C/C=C1/O[C@]2(CCC(OC(C)=O)CO2)[C@@H]2O[C@H]12` (stereo partly specified), the TGI in test [1] was 52.1 µM; in test [2], 45.7 µM; in [3] it was 67.6 µM; in [5] it was above 100 µM; in [6], above 100 µM; in test [7], 40.6 µM. For the same compound, the results for the TGI in test [8] and in test [9] were 55.3 µM and 51.9 µM, respectively.
